Where a SMILES comes first, the peptide text is derived from it.
Target: HLA B*1501 (Homo sapiens, UniProt P01889, A329T/A93T/A95T/C349S/D201E/D98Y/E187L/E204Q/E69M/E70A/K202T/N87E/Q94N/R155S/R180W/S121R/S35A/S48A/V306I/V36M/Y140S/Y91S)
Assay: biochemical
Format: binding

Compound | IC50 [nM]
CC(C)C[C@H](NC(=O)[C@H](Cc1ccccc1)NC(=O)[C@H](C)NC(=O)CNC(=O)[C@H](CS)NC(=O)[C@H](CC(C)C)NC(=O)[C@@H](N)CCC(=O)O)C(=O)N[C@@H](Cc1ccccc1)C(=O)N[C@@H](Cc1ccc(O)cc1)C(=O)O [3102.1015] (H-ELCGAFLFY-OH) | 7.5
CC[C@H](C)[C@H](NC(=O)[C@H](CC(C)C)NC(=O)[C@@H](N)CO)C(=O)N[C@@H](Cc1ccc(O)cc1)C(=O)N[C@@H](CC(C)C)C(=O)N[C@@H](CS)C(=O)N[C@H](C(=O)N[C@@H](Cc1ccccc1)C(=O)N[C@@H](CCSC)C(=O)O)[C@@H](C)O [3102.1017] (H-SLIYLCTFM-OH) | 4.5
CC[C@H](C)[C@H](N)C(=O)N[C@H](C(=O)N[C@@H](CO)C(=O)N[C@@H](CO)C(=O)N[C@@H](CO)C(=O)N[C@H](C(=O)N[C@@H](CC(C)C)C(=O)N[C@@H](Cc1ccc(O)cc1)C(=O)N[C@@H](Cc1ccccc1)C(=O)O)[C@@H](C)O)[C@@H](C)CC [3102.1018] (H-IISSSTLYF-OH) | 1.1
CC(C)C[C@H](NC(=O)[C@H](CCCCN)NC(=O)[C@H](CCCCN)NC(=O)[C@H](CC(C)C)NC(=O)[C@@H](N)CC(C)C)C(=O)N[C@@H](CC(N)=O)C(=O)N[C@@H](CO)C(=O)N[C@@H](Cc1ccccc1)C(=O)NCC(=O)O [3102.1020] (H-LLKKLNSFG-OH) | 45
CC(C)C[C@H](NC(=O)[C@@H](N)CC(C)C)C(=O)N[C@@H](Cc1c[nH]cn1)C(=O)N[C@@H](CS)C(=O)N[C@H](C(=O)N[C@H](C(=O)N[C@@H](CCC(=O)O)C(=O)N[C@@H](CO)C(=O)N[C@@H](Cc1ccc(O)cc1)C(=O)O)[C@@H](C)O)C(C)C [3102.1022] (H-LLHCVTESY-OH) | 1
CC[C@H](C)[C@H](NC(=O)[C@H](CCC(=O)O)NC(=O)[C@H](Cc1ccccc1)NC(=O)[C@H](Cc1ccccc1)NC(=O)[C@@H](NC(=O)[C@@H](N)Cc1ccc(O)cc1)C(C)C)C(=O)N[C@H](C(=O)N[C@@H](Cc1c[nH]cn1)C(=O)N[C@@H](Cc1ccccc1)C(=O)O)[C@@H](C)CC [3102.1024] (H-YVFFEIIHF-OH) | 0.69
CSCC[C@H](NC(=O)[C@H](Cc1c[nH]cn1)NC(=O)[C@H](CCCCN)NC(=O)[C@H](CC(N)=O)NC(=O)[C@@H](NC(=O)[C@H](CC(N)=O)NC(=O)[C@H](CO)NC(=O)[C@H](CCC(N)=O)NC(=O)[C@@H](N)CCCCN)[C@@H](C)O)C(=O)O [3102.1026] (H-KQSNTNKHM-OH) | 28
CSCC[C@H](NC(=O)[C@H](Cc1c[nH]cn1)NC(=O)[C@H](CCCCN)NC(=O)[C@H](CC(N)=O)NC(=O)[C@@H](NC(=O)[C@@H](N)CC(N)=O)[C@@H](C)O)C(=O)N[C@@H](CC(C)C)C(=O)N[C@@H](CCC(=O)O)C(=O)N[C@@H](Cc1ccccc1)C(=O)O [3102.1027] (H-NTNKHMLEF-OH) | 12
CC(C)C[C@H](NC(=O)[C@H](C)NC(=O)[C@@H](NC(=O)[C@H](Cc1ccccc1)NC(=O)[C@H](CS)NC(=O)[C@H](Cc1ccccc1)NC(=O)[C@H](Cc1ccc(O)cc1)NC(=O)[C@@H](NC(=O)[C@@H](N)CC(C)C)[C@@H](C)O)C(C)C)C(=O)O [3102.1028] (H-LTYFCFVAL-OH) | 29
CC[C@H](C)[C@H](NC(=O)[C@H](CO)NC(=O)[C@H](CC(C)C)NC(=O)[C@H](CC(C)C)NC(=O)[C@@H](N)CC(C)C)C(=O)N[C@@H](CC(N)=O)C(=O)N[C@@H](CO)C(=O)N[C@@H](CO)C(=O)N[C@@H](Cc1ccccc1)C(=O)O [3102.1035] (H-LLLSINSSF-OH) | 0.88
CC[C@H](C)[C@H](NC(=O)[C@@H](N)CCSC)C(=O)N[C@@H](CCCCN)C(=O)N[C@@H](CC(N)=O)C(=O)N[C@@H](CC(C)C)C(=O)N[C@H](C(=O)N[C@@H](CCC(N)=O)C(=O)N[C@@H](CC(C)C)C(=O)N[C@@H](Cc1ccccc1)C(=O)O)[C@@H](C)O [3102.1037] (H-MIKNLTQLF-OH) | 5.7
CSCC[C@H](NC(=O)[C@H](C)NC(=O)[C@@H]1CCCN1C(=O)[C@@H](NC(=O)[C@H](Cc1ccc(O)cc1)NC(=O)[C@H](C)NC(=O)[C@H](CCCCN)NC(=O)[C@H](CCC(N)=O)NC(=O)[C@@H](N)CCC(=O)O)C(C)C)C(=O)O [3102.1038] (H-EQKAYVPAM-OH) | 0.77
